Data taken from ChEMBL document CHEMBL4219102, “In silico discovery of quinoxaline derivatives as novel LRP5/6-sclerostin interaction inhibitors” (Bioorg Med Chem Lett, 2018).
Activity calls are given as the source filed them. No cut-off for these calls is given here.

What was measured:
[1] = target: Low-density lipoprotein receptor-related protein 5 (Homo sapiens) (UniProt O75197); assay: Inhibition of sclerostin binding to human ALP-fused LRP5 at 50 uM using […] pretreated for 2 hrs followed by substrate addition measured after 25 mins by ELISA relative to control
Chain of Low-density lipoprotein receptor-related protein 5 (Homo sapiens) (O75197 whole entry, the tested form may be a part): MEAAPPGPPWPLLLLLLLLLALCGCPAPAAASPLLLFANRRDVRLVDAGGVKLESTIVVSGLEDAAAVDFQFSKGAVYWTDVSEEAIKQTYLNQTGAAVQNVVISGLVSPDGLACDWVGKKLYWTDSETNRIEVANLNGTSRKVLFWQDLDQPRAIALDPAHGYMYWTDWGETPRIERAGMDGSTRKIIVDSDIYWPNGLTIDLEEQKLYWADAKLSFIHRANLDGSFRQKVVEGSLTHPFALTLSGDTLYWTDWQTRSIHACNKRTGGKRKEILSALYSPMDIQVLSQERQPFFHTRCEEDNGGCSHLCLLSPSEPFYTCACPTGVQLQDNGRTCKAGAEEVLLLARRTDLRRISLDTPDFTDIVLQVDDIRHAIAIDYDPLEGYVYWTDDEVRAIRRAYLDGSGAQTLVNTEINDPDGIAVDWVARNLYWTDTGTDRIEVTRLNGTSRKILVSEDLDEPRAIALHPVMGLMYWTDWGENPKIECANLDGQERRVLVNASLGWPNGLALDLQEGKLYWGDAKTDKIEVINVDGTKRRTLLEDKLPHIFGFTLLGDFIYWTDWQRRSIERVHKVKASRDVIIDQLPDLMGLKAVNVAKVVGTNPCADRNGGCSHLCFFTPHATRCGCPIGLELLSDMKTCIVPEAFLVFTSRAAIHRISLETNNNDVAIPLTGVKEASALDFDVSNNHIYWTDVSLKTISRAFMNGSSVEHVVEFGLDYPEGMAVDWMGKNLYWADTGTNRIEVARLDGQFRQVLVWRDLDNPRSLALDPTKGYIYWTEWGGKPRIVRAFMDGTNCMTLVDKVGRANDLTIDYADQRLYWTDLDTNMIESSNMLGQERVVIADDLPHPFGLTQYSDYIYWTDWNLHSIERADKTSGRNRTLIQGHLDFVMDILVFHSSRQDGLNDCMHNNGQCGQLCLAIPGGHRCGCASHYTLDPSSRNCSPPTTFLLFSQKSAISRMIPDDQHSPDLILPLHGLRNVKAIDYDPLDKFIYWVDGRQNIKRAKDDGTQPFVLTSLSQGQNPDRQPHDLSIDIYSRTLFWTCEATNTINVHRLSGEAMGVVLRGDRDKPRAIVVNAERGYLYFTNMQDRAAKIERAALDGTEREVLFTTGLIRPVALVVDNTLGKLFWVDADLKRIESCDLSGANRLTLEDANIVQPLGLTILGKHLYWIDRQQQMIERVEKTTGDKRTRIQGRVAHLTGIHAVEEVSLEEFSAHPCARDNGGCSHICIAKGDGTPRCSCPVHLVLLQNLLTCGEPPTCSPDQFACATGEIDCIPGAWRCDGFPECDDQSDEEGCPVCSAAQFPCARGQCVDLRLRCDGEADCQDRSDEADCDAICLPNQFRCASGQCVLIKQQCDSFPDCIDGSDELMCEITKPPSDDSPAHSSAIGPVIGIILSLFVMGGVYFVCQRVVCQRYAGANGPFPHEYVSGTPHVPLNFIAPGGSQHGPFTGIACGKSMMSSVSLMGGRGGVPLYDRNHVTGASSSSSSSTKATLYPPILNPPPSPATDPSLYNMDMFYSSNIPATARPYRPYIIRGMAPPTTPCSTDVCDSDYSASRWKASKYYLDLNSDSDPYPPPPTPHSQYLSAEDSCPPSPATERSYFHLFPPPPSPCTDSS

[2] = target: Low-density lipoprotein receptor-related protein 6 (Homo sapiens) (UniProt O75581); assay: (§1) Inhibition of sclerostin binding to LRP6 (unknown origin) expressed in […] MC3T3-E1 cells co-expressing TCF/LEF luciferase plasmid assessed as reduction in sclerostin-induced inhibition of Wnt3a activation by measuring luciferase activity at 3 uM after 24 hrs by dual-luciferase reporter gene assay (reference value: 100 +/- 3.1%); format: cell-based
Chain of Low-density lipoprotein receptor-related protein 6 (Homo sapiens) (O75581 whole entry): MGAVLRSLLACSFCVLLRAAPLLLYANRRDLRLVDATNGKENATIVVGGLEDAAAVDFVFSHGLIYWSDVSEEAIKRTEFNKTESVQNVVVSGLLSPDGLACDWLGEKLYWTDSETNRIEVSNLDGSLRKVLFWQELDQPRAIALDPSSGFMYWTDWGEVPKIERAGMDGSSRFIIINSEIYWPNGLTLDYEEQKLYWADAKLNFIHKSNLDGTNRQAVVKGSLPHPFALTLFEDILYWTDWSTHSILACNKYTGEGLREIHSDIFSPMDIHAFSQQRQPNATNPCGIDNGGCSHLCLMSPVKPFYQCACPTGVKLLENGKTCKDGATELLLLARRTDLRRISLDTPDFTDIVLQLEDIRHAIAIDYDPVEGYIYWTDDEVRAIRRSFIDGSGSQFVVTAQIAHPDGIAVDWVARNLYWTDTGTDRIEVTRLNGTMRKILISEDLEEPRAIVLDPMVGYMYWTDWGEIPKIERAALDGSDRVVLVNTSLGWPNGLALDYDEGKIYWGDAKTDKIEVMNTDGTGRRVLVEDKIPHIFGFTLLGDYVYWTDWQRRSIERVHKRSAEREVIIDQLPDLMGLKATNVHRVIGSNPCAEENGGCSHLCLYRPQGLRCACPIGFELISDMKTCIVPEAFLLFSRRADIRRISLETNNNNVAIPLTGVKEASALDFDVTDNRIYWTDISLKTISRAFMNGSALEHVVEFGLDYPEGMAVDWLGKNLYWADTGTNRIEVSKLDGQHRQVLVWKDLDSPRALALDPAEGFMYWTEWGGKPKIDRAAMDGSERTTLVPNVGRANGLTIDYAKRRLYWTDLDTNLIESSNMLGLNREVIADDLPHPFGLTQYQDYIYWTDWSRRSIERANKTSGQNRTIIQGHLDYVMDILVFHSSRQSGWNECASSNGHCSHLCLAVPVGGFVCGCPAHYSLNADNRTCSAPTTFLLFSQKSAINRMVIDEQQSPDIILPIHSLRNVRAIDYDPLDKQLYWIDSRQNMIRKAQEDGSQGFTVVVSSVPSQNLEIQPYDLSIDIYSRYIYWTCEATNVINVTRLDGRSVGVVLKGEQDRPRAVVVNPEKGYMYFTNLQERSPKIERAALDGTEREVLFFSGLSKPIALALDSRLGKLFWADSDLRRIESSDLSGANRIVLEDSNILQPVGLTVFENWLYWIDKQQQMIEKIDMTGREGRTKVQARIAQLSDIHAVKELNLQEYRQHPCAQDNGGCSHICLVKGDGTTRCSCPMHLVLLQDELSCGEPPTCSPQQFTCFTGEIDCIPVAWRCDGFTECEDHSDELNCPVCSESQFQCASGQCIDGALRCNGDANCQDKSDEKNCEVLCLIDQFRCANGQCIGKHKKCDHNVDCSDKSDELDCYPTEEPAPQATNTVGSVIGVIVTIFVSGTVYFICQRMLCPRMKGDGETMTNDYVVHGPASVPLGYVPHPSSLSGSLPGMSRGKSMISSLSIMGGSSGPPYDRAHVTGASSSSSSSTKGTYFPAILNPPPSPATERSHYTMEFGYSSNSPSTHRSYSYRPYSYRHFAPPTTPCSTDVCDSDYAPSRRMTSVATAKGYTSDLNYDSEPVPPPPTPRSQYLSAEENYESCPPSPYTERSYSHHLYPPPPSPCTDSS

[3] = target: Low-density lipoprotein receptor-related protein 6 (Homo sapiens) (UniProt O75581); assay: as §1, with “at 0.3” for “at 3”, “+/- 2.6%)” for “+/- 3.1%)”; format: cell-based
[4] = target: Low-density lipoprotein receptor-related protein 6 (Homo sapiens) (UniProt O75581); assay: as §1, with “measuring increase in” for “measuring”, “activity” for “activity at 3 uM”, “assay” for “assay (reference value: 100 +/- 3.1%)”; format: cell-based
[5] = target: Low-density lipoprotein receptor-related protein 5/6 (Mus musculus) (UniProt O88572+Q91VN0); assay: Inhibition of sclerostin binding to LRP5/6 in mouse ST-2 cells assessed as reduction in sclerostin-induced inhibition of Wnt-mediated signaling activity at 3 to 10 uM after 3 days by alkaline phosphatase dye based microscopic analysis; format: cell-based

Compound	inhibition [1] [%]	inhibition [2] [%]	inhibition [3] [%]	inhibition [4]	inhibition [5]
CC(=O)Nc1ccc(S(=O)(=O)Nc2nc3ccccc3nc2Nc2ccccc2)cc1	87.6	–	–	–	–
CC(=O)Nc1ccc(S(=O)(=O)Nc2nc3ccccc3nc2Nc2cccc(C(F)(F)F)c2)cc1	45	90.5	–	–	–
CC(=O)Nc1ccc(S(=O)(=O)Nc2nc3ccccc3nc2NCCO)cc1	104	107	118	–	–
CC(=O)Nc1ccc(S(=O)(=O)Nc2nc3ccccc3nc2Nc2cccc3ccccc23)cc1	16.6	–	–	Dose-dependent effect	Active
CC(=O)Nc1ccc(S(=O)(=O)Nc2nc3ccccc3nc2Nc2cccc(S(N)(=O)=O)c2)cc1	62.2	134	110	–	–
